{"source": "patent EP1056460B1", "about": "“PHARMACEUTICAL PREPARATIONS FOR SELECTIVELY SUPPLEMENTING OESTROGEN DEFICIENCY IN THE CENTRAL NERVOUS SYSTEM” (priority 1998, dated 1999)", "key": {"Uterus [1]": {"system": "Uterus", "test": "Uterus wet weight after chronic subcutaneous application (osmotic minipumps, 7 days) in ovariectomised rats", "type": "in vivo, Wistar-Ratten", "excerpt": "Geschlechtsreife (drei Monate alt, Gewicht 250±30 g) weibliche Wistar-Ratten (Tierzucht Schönwalde GmbH, Deutschland) wurden unter Ketamin-Narkose ovarektomiert. […] Am 7. Behandlungstag wurden die Tiere getötet und die Uterus-Feuchtgewichte (bezogen auf 100 g Körpergewicht) ermittelt.\nGeschlechtsreife (drei Monate alt, Gewicht 250±30 g) weibliche Wistar-Ratten (Tierzucht Schönwalde GmbH, Deutschland) wurden unter Ketamin-Narkose ovarektomiert. […] Unmittelbar nach der Tötung der Tiere, wurden die Uterus-Feuchtgewichte (bezogen auf 100 g Körpergewicht) ermittelt. Die Messenger-Ribonukleinsäure (mRNA), die die Biosynthese von Oxytozin codiert, wurde durch in-situ-Hybridisierung mit einer spezifischen radioaktiv-markierten Oligodeoxynukleotid-Sonde nach einer etablierten Methode (Fischer D et al, Lactation as a model of naturally reversible hypercorticalism: plasticity in the mechanism governing hypothalamo-pituitary-adrenal activity in the rat, J Clin Invest 96: 1208-1215, 1995), 1995) im hypothalamischen Nucleus paraventricularis (PVN) dargestellt. Behandlungsbedingte Veränderungen in der Transkription des Oxytocin-Gens wurden durch densitometrische Messungen der spezifischen Hybridisierungssignale innerhalb der definierten anatomischen Stukturen quantifiziert.\n(§1) Jeder Punkt stellt x ± SEM von 5-7 Einzelbestimmungen."}, "[2]": {"system": "Alpha-Isoform des Estrogenrezeptors (ERa)", "test": "Activation of transcription of an ERa-dependent luciferase reporter gene in MCF-7/2A cells", "type": "cell-based", "conditions": "EREwtcLUC reporter, 10^-11 to 10^-8 M, 48 h, fold lower than 17b-Estradiol", "excerpt": "Brustkrebszellen MCF-7/2A, die die Alpha-Isoform des Estrogenrezeptors (ERa) exprimieren, wurden mit dem Reporter-Plasmid EREwtcLUC stabil transfiziert. Der Reporter enthält den Estrogen-Response Element (ERE) von Vitellogenin, einen Thymidinkinase-Promotor und das Luciferase-codierende Gen von Photinus pyralis. […] Die Zellen wurden lysiert und die Transkription des Luciferase-Reportergens wurde durch Bestimmung der Luciferase-Aktivität mit einem spezifischen Testansatz (Serva/Promega, Deutschland) ermittelt.\nDie Figur stellt die Mittelwerte von zwei unabhängigen Versuchen dar."}, "Oxytocin-Gens": {"system": "Oxytocin-Gens", "test": "Oxytocin mRNA in the hypothalamic paraventricular nucleus by in-situ hybridisation after chronic treatment in vivo", "design": "species or system Wistar-Ratten", "conditions": "ovariectomised rats, 0,01, 0,1 and 1 µg daily s.c. for 7 days; effect of the prototype very similar to 17b-Estradiol", "excerpt": "Geschlechtsreife (drei Monate alt, Gewicht 250±30 g) weibliche Wistar-Ratten (Tierzucht Schönwalde GmbH, Deutschland) wurden unter Ketamin-Narkose ovarektomiert. […] Unmittelbar nach der Tötung der Tiere, wurden die Uterus-Feuchtgewichte (bezogen auf 100 g Körpergewicht) ermittelt. […] Behandlungsbedingte Veränderungen in der Transkription des Oxytocin-Gens wurden durch densitometrische Messungen der spezifischen Hybridisierungssignale innerhalb der definierten anatomischen Stukturen quantifiziert.\nas §1"}, "bcl-2": {"system": "bcl-2", "test": "bcl-2 transcripts in the dentate gyrus of the hippocampus by in-situ hybridisation after chronic treatment in vivo", "design": "species or system Wistar-Ratten", "conditions": "ovariectomised rats, 0,01, 0,1 and 1 µg daily s.c. for 7 days; effect of the prototype identical to equal doses of 17b-Estradiol", "from_the_text": "Das Untersuchungsmaterial stammte von Tieren, die im unter Beispiel 3 beschriebenen Experiment behandelt wurden. […] Bcl-2-Transkripte wurden in Hirnschnitten durch in-situ-Hybridisierung mit einer spezifischen Oligonukleotid-Sonde (Clark RSB et al., Apoptosis-suppressor gene bcl-2 expression after traumatic brain injury in rats, J Neurosci 17: 9172-9182, 1997) dargestellt, und nach der im Beispiel 3 beschriebenen Methode densitometrisch quantifiziert."}, "Oxytozin-Rezeptoren": {"system": "Oxytozin-Rezeptoren", "test": "Density of oxytocin receptors in brain and myometrium by 125I-OVTA autoradiography after 7 days of treatment", "type": "in vivo, Ratten", "conditions": "1 µg daily s.c. for 7 days", "excerpt": "Jede Säule repräsentiert x ± SEM von 4-5 Einzelbestimmungen."}, "Endometriums": {"system": "Endometriums", "test": "Computer-aided measurement of endometrium thickness in uterus preparations", "type": "in vivo, Ratten", "conditions": "ovariectomised rats, 1 µg daily s.c. for 7 days"}, "kognitive Leistung": {"system": "kognitive Leistung", "test": "Conditioned escape behaviour (retention and extinction) in ovariectomised rats after chronic treatment", "type": "in vivo, Wistar-Ratten", "conditions": "30 µg daily s.c., retention tested on day 7", "excerpt": "(§2) Eine Korrelation zwischen Serum-Estrogenspiegel und kognitiver Leistung wurde auch im Tierversuchsmodell nachgewiesen (Kondo Y, Suzuki K, Sakuma Y, Estrogen aleviates cognitive dysfunction following transient brain ischemia in ovariectomized gerbils, Neurosci Lett 238: 45-48, 1997). […] Die gesamte Behandlungsdauer war 14 Tage. Am 5. und 6. Behandlungstag wurden Trainingssitzungen zum Erlernen eines konditionierten Escape-Verhaltens nach einer etablierten Methode (Diaz-Veliz G et al., Influence of the estrous cycle, ovariectomy and estradiol replacement upon the acquisition of conditioned avoidance responses in rats, Physiol Behav 46: 397-401, 1989) durchgeführt. Jedes Tier wurde in einer Sitzung 50 Mal der Kombination aus einem unbedingten (elektrische Reizung) und zwei konditionierenden Stimuli (Licht- und Schall-Signal) exponiert. Am 7. Behandlungstag wurde die Retention des erlernten Verhaltensmusters getestet. Nach einer 6-tägigen Unterbrechung der Lernsitzungen, wurde am 14. Behandlungstag die Extinktion des erlernten konditionierten Verhaltens ermittelt. Die Anzahl der korrekten Verhaltensreaktionen (Escape in das \"sichere\" Abteil des Apparats innerhalb von drei Sekunden nach Präsentation der konditionierenden Signale) aus 50 aufeinanderfolgenden Expositionen wurde als Kriterium für die Bewertung der Retention bzw. Extinktion des erlernten Verhaltens verwendet."}, "Uterus [3]": {"system": "Uterus", "test": "Uterus weight after 14 days of daily subcutaneous treatment (cognition experiment)", "type": "in vivo, Wistar-Ratten", "conditions": "for Uterusgewichte (x ± SEM): after 14 days of daily s.c. treatment: 17b-Estradiol 1 µg, 17a-Estradiol 100 µg, prototype 30 µg, n = 8-10, OVX 53 ± 2", "excerpt": "as §2"}, "[4]": {"test": "Serum concentration of 17b-Estradiol after 7 days of subcutaneous treatment (biotransformation)", "type": "in vivo, Ratten", "conditions": "ovariectomised rats, daily s.c. for 7 days: 17a-Estradiol 100 µg, prototype 30 µg, 17b-Estradiol 1 µg; placebo below detection limit", "excerpt": "Sternzeichen bezeichnen signifikante Differenzen im Vergleich zu den Werten, die bei Placebo-behandelten Tieren gemessen wurden; die Letzteren waren unterhalb der Nachweisgrenze der Methode; jede Behandlungsgruppe bestand aus 7 Tieren."}}, "data": [{"compound": "C[C@]12CCC3=C(CCc4cc(O)ccc43)[C@@]13C[C@H]3C[C@H]2O", "note": "[15βH,3'H-Cycloprop[14,15]-estra-1,3,5(10),8-tetraen-3,17α-diol]", "values": [{"measurement": "Wirksamkeit im weiblichen Genitaltrakt im Vergleich mit 17a-Estradiol", "setting": "Uterus [1]; comparison in words", "result": "vergleichbar mit derjenigen von 17a-Estradiol"}, {"measurement": "Wirksamkeit im weiblichen Genitaltrakt, geringer als diese von 17b-Estradiol", "setting": "Uterus [1]; fold lower than 17b-Estradiol, from uterotropic daily doses", "result": "~1000 -fach"}, {"measurement": "Uterus-Vergrößerung", "setting": "Uterus [1]; ovariectomised rats, 0,01, 0,1 and 1 µg daily s.c. for 7 days (Example 3)", "result": "keiner Uterus-Vergrößerung"}, {"measurement": "Tagesdosen für signifikante Vergrößerung des Uterus (uterotroper Effekt)", "setting": "Uterus [1]; ovariectomised rats, s.c. osmotic minipumps, 7 days, uterus wet weight per 100 g body weight", "result": 30, "unit": "µg"}, {"measurement": "Effizienz (Transkription des Reporters), geringer als diese von 17b-Estradiol", "setting": "[2]", "result": "10 -fach"}, {"measurement": "Transkription des Oxytozin-Gens im PVN", "setting": "Oxytocin-Gens", "result": "dosisabhängig stimuliert"}, {"measurement": "Expression von bcl-2 im Gyrus dentatus", "setting": "bcl-2", "result": "dosisabhängigen Stimulation"}, {"measurement": "Dichte von Oxytozin-Rezeptoren in allen untersuchten Hirnstrukturen", "setting": "Oxytozin-Rezeptoren; VMN and BNST, ovariectomised rats, 50 pM 125I-OVTA", "result": "signifikanten Anstieg"}, {"measurement": "Dichte von Oxytozin-Rezeptoren im VMN im Vergleich mit 17b-Estradiol", "setting": "Oxytozin-Rezeptoren; VMN", "result": "schwächeren Effekt als 17b-Estradiol"}, {"measurement": "Induktion von Oxytozin-Bindungsstellen im Myometrium", "setting": "Oxytozin-Rezeptoren; ovariectomised rats", "result": "signifikant geringere Wirkung"}, {"measurement": "Stärke des Endometriums (endometriale Proliferation)", "setting": "Endometriums", "result": "nicht beeinflussen"}, {"measurement": "Retention des erlernten Verhaltensmusters", "setting": "kognitive Leistung", "result": "estrogen-ähnlichen stimulierenden Effekt"}, {"measurement": "Uterusgewichte (x ± SEM)", "setting": "Uterus [3]", "result": "108 ± 4", "unit": "mg/100g KG"}, {"measurement": "uterotrope Wirkung im Vergleich mit 17b-Estradiol in einer täglichen Dosis von 1 µg", "setting": "Uterus [3]; prototype 30 µg daily s.c., 14 days", "result": "signifikant geringer"}, {"measurement": "Serumkonzentrationen von 17b-Estradiol", "setting": "[4]", "result": "keinen Anstieg"}]}, {"compound": "C[C@]12CC[C@@H]3c4ccc(O)cc4CC[C@H]3[C@@H]1CC[C@H]2O", "note": "[17a-Estradiol]", "values": [{"measurement": "Induktion von Oxytozin-Bindungsstellen im Myometrium", "setting": "Oxytozin-Rezeptoren; ovariectomised rats", "result": "signifikant geringere Wirkung"}, {"measurement": "Stärke des Endometriums (endometriale Proliferation)", "setting": "Endometriums", "result": "nicht beeinflussen"}, {"measurement": "Serumkonzentrationen von 17b-Estradiol", "setting": "[4]", "result": "meßbare Konzentrationen"}]}, {"compound": "C[C@]12CC[C@@H]3c4ccc(O)cc4CC[C@H]3[C@@H]1CC[C@@H]2O", "note": "[17b-Estradiol]", "values": [{"measurement": "Stärke des Endometriums (endometriale Proliferation)", "setting": "Endometriums", "result": "signifikante endometriale Proliferation"}, {"measurement": "Uterusgewichte (x ± SEM)", "setting": "Uterus [3]", "result": "187 ± 9", "unit": "mg/100g KG"}, {"measurement": "Serumkonzentrationen von 17b-Estradiol", "setting": "[4]", "result": "meßbare Konzentrationen"}]}]}
